# Test results from US6699862B1, “Indolyl-2-phenyl bisamidines useful as antiproliferative agents” (Pfizer Inc., priority 1999, dated 2004).
row,Structure (SMILES),melting point [°C]
1,COC(=O)c1ccc(Cc2c(-c3ccc(C(=N)N)cc3)[nH]c3cc(C(=N)N)ccc23)cc1.Cl.Cl,> 250
2,COC(=O)C(NCCc1c(-c2ccc(C(=N)N)cc2)[nH]c2cc(C(=N)N)ccc12)C(C)C.Cl.Cl (centres unmarked),> 250
3,Cl.Cl.N=C(N)c1ccc(-c2[nH]c3cc(C(=N)N)ccc3c2CC(=O)OCCCCCO)cc1,> 250
4,COC(=O)c1cc(Cl)ccc1Cc1c(-c2ccc(C(=N)N)cc2)[nH]c2cc(C(=N)N)ccc12.Cl.Cl,> 250
5,COC(=O)C(CCCCN)NC(=O)Cc1c(-c2ccc(C(=N)N)cc2)[nH]c2cc(C(=N)N)ccc12.Cl.Cl (centres unmarked),> 260
6,Cl.Cl.O=CCc1c(-c2ccc(C3=NCCN3)cc2)[nH]c2cc(C3=NCCN3)ccc12,> 300
7,Cl.Cl.N=C(N)c1ccc(-c2[nH]c3cc(C(=N)N)ccc3c2Cc2cccc(OCC(N)=O)c2)cc1,> 250
8,CCOC(=O)CNCCc1c(-c2ccc(C(=N)N)cc2)[nH]c2cc(C(=N)N)ccc12.Cl.Cl,> 250
9,CNC(=N)c1ccc(-c2cc3ccc(C(=N)NC)cc3[nH]2)cc1.Cl.Cl,282
10,COC(=O)C(CO)NCCc1c(-c2ccc(C(=N)N)cc2)[nH]c2cc(C(=N)N)ccc12.Cl.Cl (centres unmarked),> 250
11,Cl.Cl.N=C(N)c1ccc(-c2[nH]c3cc(C(=N)N)ccc3c2NC(=O)CCC(=O)O)cc1,> 250
12,Cl.Cl.N=C(N)c1ccc(-c2[nH]c3cc(C(=N)N)ccc3c2CC(=O)OCCOCCO)cc1,> 250
13,CCCCS(=O)(=O)CCOC(=O)Cc1c(-c2ccc(C(=N)N)cc2)[nH]c2cc(C(=N)N)ccc12.Cl.Cl,> 250
14,Cl.Cl.N=C(N)c1ccc(-c2[nH]c3cc(C(=N)N)ccc3c2CC(=O)NCC(=O)NC(CCC(=O)OCc2ccccc2)C(=O)OCc2ccccc2)cc1 (centres unmarked),207 to 212
15,Cl.Cl.N=C(N)c1ccc(-c2[nH]c3cc(C(=N)N)ccc3c2CC(O)CO)cc1 (centres unmarked),> 250
16,Cl.Cl.N=C(N)c1ccc(-c2[nH]c3cc(C(=N)N)ccc3c2CC(=O)O)cc1,> 250
17,Cl.Cl.N=C(N)c1ccc(-c2[nH]c3cc(C(=N)N)ccc3c2CC(=O)OCCc2cccs2)cc1,> 250
18,Cl.Cl.N#CCCOC(=O)Cc1c(-c2ccc(C(=N)N)cc2)[nH]c2cc(C(=N)N)ccc12,> 250
19,COc1cc(C(=N)N)ccc1-c1cc2ccc(C(=N)N)cc2[nH]1.Cl.Cl,> 250
20,C=CCOC(=O)Cc1c(-c2ccc(C(=N)N)cc2)[nH]c2cc(C(=N)N)ccc12.Cl.Cl,> 250
21,Cl.Cl.N=C(N)c1ccc(-c2[nH]c3cc(C(=N)N)ccc3c2CCNCC(=O)O)cc1,> 250
22,CC(C(=O)O)c1c(-c2ccc(C(=N)N)cc2)[nH]c2cc(C(=N)N)ccc12.Cl.Cl (centres unmarked),> 260
23,Cl.Cl.N=C(N)c1ccc(-c2[nH]c3cc(C(=N)N)ccc3c2CC(=O)OCc2ccccc2)cc1,> 250
24,COC(=O)CC(NCCc1c(-c2ccc(C(=N)N)cc2)[nH]c2cc(C(=N)N)ccc12)C(=O)OC.Cl.Cl (centres unmarked),> 250
25,COCCOCCOC(=O)Cc1c(-c2ccc(C(=N)N)cc2)[nH]c2cc(C(=N)N)ccc12.Cl.Cl,> 250

row,Structure (SMILES),melting point [°C]
1,Cl.Cl.N=C(N)c1ccc(-c2cc3ccc(C(=N)N)cc3[nH]2)c(OCC(O)CO)c1 (centres unmarked),> 320
2,COC(=O)C(CCCN)NC(=O)Cc1c(-c2ccc(C(=N)N)cc2)[nH]c2cc(C(=N)N)ccc12.Cl.Cl (centres unmarked),> 250
3,Cl.Cl.O=C(O)Cc1c(-c2ccc(C3=NCCN3)cc2)[nH]c2cc(C3=NCCN3)ccc12,> 300
4,COC(=O)C=CCc1c(-c2ccc(C(=N)N)cc2)[nH]c2cc(C(=N)N)ccc12.Cl.Cl,> 250
5,CCCCOC(=O)Cc1c(-c2ccc(C(=N)N)cc2)[nH]c2cc(C(=N)N)ccc12.Cl.Cl,> 270
6,COC(=O)c1cccc(Cc2c(-c3ccc(C(=N)N)cc3)[nH]c3cc(C(=N)N)ccc23)c1.Cl.Cl,> 250
7,CC(C)OC(=O)C(C)Oc1cc(C(=N)N)ccc1-c1cc2ccc(C(=N)N)cc2[nH]1.Cl.Cl (centres unmarked),240
8,COCCOC(=O)Cc1c(-c2ccc(C(=N)N)cc2)[nH]c2cc(C(=N)N)ccc12.Cl.Cl,> 250
9,Cl.Cl.N=C(N)c1ccc(-c2[nH]c3cc(C(=N)N)ccc3c2CC(=O)OCCOCc2ccccc2)cc1,> 250
10,COC(=O)CCNCCc1c(-c2ccc(C(=N)N)cc2)[nH]c2cc(C(=N)N)ccc12.Cl.Cl,> 250
11,COC(=O)C(Cc1ccccc1)NCCc1c(-c2ccc(C(=N)N)cc2)[nH]c2cc(C(=N)N)ccc12.Cl.Cl (centres unmarked),> 250
12,Cl.Cl.N=C(N)c1ccc(-c2[nH]c3cc(C(=N)N)ccc3c2CC(=O)OCC(O)CO)cc1 (centres unmarked),> 250
13,Cl.Cl.N=C(N)c1ccc(-c2[nH]c3cc(C(=N)N)ccc3c2CC(=O)OCCO)cc1,> 250
14,Cl.Cl.N=C(N)c1ccc(-c2cc3ccc(C(=N)N)cc3[nH]2)c(O)c1,> 300
15,COC(=O)CNCCc1c(-c2ccc(C(=N)N)cc2)[nH]c2cc(C(=N)N)ccc12.Cl.Cl,> 250
16,COC(=O)C=Cc1ccc(Cc2c(-c3ccc(C(=N)N)cc3)[nH]c3cc(C(=N)N)ccc23)cc1.Cl.Cl,> 250
17,COC(=O)Cc1c(-c2ccc(C(=N)N)cc2O)[nH]c2cc(C(=N)N)ccc12.Cl.Cl,> 250
18,CCOC(=O)Cc1c(-c2ccc(C3=NCCN3)cc2)[nH]c2cc(C3=NCCN3)ccc12.Cl.Cl,> 300
19,CCSCCOC(=O)Cc1c(-c2ccc(C(=N)N)cc2)[nH]c2cc(C(=N)N)ccc12.Cl.Cl,> 250
20,COC(=O)C(CCCNC(=O)OCc1ccccc1)NC(=O)Cc1c(-c2ccc(C(=N)N)cc2)[nH]c2cc(C(=N)N)ccc12.Cl.Cl (centres unmarked),230 to 235
21,Cl.Cl.N=C(N)c1ccc(-c2[nH]c3cc(C(=N)N)ccc3c2CC(=O)OCC2CCCCO2)cc1 (centres unmarked),> 250
22,CCCOC(=O)Cc1c(-c2ccc(C(=N)N)cc2)[nH]c2cc(C(=N)N)ccc12.Cl.Cl,> 270
23,CCOC(=O)CC(C)OC(=O)Cc1c(-c2ccc(C(=N)N)cc2)[nH]c2cc(C(=N)N)ccc12.Cl.Cl (centres unmarked),> 250
24,Cl.Cl.Fc1cc2cc(-c3ccc(C4=NCCN4)cc3)[nH]c2cc1C1=NCCN1,> 250
25,COC(=O)C(C)NCCc1c(-c2ccc(C(=N)N)cc2)[nH]c2cc(C(=N)N)ccc12.Cl.Cl (centres unmarked),> 250
